Source: article PMC4490784, “Compensatory induction of MYC expression by sustained CDK9 inhibition via a BRD4-dependent mechanism” (eLife, 2015)

Columns and labels:
Assay in all cases: KINOMEscan binding assay
AURKB = biological target: T1, AURKB (Homo sapiens, UniProt Q96GD4); conditions: read-out: % Retention on Solid Support
T1 construct: purchased DiscoveRx KINOMEscan
Summary of the method: (§1)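 Two inhibitor concentrations (1 and 10 µM) were run. Binding to each kinase was assessed by competition with an active site-directed probe, covering upwards of 400 kinases.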

CSNK1G2 = biological target: T2, CSNK1G2 (Homo sapiens, UniProt P78368)
T2 construct: purchased DiscoveRx KINOMEscan
Summary of the method: as §1

PIK3CA(M1043I) = biological target: T3, PIK3CA(M1043I) (Homo sapiens, UniProt P42336, M1043I); conditions: read-out: % Retention on Solid Support
T3 construct: purchased DiscoveRx KINOMEscan
Summary of the method: as §1

TNNI3K = biological target: T4, TNNI3K (Homo sapiens, UniProt Q59H18); conditions: read-out: % Retention on Solid Support
T4 construct: purchased DiscoveRx KINOMEscan
Summary of the method: as §1

CLK3 = biological target: T5, CLK3 (Homo sapiens, UniProt P49761); conditions: read-out: % Retention on Solid Support
T5 construct: purchased DiscoveRx KINOMEscan
Summary of the method: as §1

SYK = biological target: T6, SYK (Homo sapiens, UniProt P43405)
T6 construct: purchased DiscoveRx KINOMEscan
Summary of the method: as §1

AKT2 = biological target: T7, AKT2 (Homo sapiens, UniProt P31751); conditions: read-out: % Retention on Solid Support
T7 construct: purchased DiscoveRx KINOMEscan
Summary of the method: as §1

EPHB1 = biological target: T8, EPHB1 (Homo sapiens, UniProt P54762); conditions: read-out: % Retention on Solid Support
T8 construct: purchased DiscoveRx KINOMEscan
Summary of the method: as §1

MAP3K4 = biological target: T9, MAP3K4 (Homo sapiens, UniProt Q9Y6R4); conditions: read-out: % Retention on Solid Support
T9 construct: purchased DiscoveRx KINOMEscan
Summary of the method: as §1

TLK1 = biological target: T10, TLK1 (Homo sapiens, UniProt Q9UKI8); conditions: read-out: % Retention on Solid Support
T10 construct: purchased DiscoveRx KINOMEscan
Summary of the method: as §1

SIK = biological target: T11, SIK (Homo sapiens, UniProt P57059)
T11 construct: purchased DiscoveRx KINOMEscan
T11 sequence (P57059 whole entry): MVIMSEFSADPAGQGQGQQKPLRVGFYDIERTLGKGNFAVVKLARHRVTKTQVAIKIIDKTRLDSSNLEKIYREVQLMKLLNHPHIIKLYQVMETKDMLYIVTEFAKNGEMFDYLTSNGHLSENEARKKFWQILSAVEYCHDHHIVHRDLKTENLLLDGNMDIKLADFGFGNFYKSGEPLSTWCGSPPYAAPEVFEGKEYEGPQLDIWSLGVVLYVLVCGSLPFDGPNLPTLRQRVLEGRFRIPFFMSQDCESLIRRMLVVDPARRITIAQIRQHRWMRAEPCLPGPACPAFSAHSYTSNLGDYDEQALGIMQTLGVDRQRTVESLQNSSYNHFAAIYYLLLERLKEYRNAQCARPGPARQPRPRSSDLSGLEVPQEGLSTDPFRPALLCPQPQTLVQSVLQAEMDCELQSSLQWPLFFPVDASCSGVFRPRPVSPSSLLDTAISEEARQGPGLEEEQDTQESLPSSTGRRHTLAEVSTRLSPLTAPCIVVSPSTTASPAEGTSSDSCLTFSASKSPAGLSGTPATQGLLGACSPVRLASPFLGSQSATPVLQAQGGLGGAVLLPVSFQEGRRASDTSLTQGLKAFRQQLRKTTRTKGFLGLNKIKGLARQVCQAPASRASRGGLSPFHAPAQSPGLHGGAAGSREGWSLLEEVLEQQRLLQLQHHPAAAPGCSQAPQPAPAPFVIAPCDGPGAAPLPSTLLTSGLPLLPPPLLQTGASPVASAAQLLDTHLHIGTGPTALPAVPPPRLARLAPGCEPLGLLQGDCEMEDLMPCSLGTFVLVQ
Summary of the method: as §1

MST1 = biological target: T12, MST1 (Homo sapiens, UniProt Q13043)
T12 construct: purchased DiscoveRx KINOMEscan
Summary of the method: as §1

CAMK2B = biological target: T13, CAMK2B (Homo sapiens, UniProt Q13554); conditions: read-out: % Retention on Solid Support
T13 construct: purchased DiscoveRx KINOMEscan
T13 sequence (Q13554 whole entry): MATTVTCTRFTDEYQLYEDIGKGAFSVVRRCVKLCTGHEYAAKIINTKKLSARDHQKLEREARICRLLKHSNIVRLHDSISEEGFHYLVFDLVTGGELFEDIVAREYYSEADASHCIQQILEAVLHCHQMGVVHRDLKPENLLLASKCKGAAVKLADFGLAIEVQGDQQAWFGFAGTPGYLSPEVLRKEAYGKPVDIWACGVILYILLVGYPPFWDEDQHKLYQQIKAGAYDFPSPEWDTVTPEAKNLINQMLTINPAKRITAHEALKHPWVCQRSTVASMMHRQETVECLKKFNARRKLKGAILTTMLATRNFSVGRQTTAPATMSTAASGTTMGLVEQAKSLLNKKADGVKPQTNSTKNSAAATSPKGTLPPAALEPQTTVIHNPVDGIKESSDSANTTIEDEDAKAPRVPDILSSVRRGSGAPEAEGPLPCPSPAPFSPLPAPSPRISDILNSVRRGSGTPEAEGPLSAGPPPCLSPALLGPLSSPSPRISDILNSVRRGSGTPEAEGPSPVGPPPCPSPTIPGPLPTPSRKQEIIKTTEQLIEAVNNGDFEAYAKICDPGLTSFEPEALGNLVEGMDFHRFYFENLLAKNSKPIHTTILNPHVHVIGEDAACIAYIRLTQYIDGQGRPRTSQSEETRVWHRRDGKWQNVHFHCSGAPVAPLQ
Summary of the method: as §1

STK33 = biological target: T14, STK33 (Homo sapiens, UniProt Q9BYT3); conditions: read-out: % Retention on Solid Support
T14 construct: purchased DiscoveRx KINOMEscan
Summary of the method: as §1

IRAK1 = biological target: T15, IRAK1 (Homo sapiens, UniProt P51617); conditions: read-out: % Retention on Solid Support
T15 construct: purchased DiscoveRx KINOMEscan
Summary of the method: as §1

p38-beta = biological target: T16, p38-beta (Homo sapiens, UniProt Q15759); conditions: read-out: % Retention on Solid Support
T16 construct: purchased DiscoveRx KINOMEscan
T16 sequence (Q15759 whole entry): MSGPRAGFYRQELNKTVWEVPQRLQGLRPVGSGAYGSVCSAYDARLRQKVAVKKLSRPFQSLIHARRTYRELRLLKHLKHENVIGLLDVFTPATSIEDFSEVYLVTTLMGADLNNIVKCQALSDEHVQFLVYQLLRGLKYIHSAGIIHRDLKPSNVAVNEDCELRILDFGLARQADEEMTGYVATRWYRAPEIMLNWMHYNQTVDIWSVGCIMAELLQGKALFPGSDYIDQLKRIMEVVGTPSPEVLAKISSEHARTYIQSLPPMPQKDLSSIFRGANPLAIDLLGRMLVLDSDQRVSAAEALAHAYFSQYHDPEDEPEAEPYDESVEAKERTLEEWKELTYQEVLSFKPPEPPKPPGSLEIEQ
Summary of the method: as §1

GCN2(Kin.Dom.2,S808G) = biological target: T17, GCN2(Kin.Dom.2,S808G) (Homo sapiens, UniProt Q9P2K8, S808G); conditions: read-out: % Retention on Solid Support
T17 construct: GCN2(Kin.Dom.2,S808G); purchased DiscoveRx KINOMEscan
Summary of the method: as §1

ASK1 = biological target: T18, ASK1 (Homo sapiens, UniProt Q99683); conditions: read-out: % Retention on Solid Support
T18 construct: purchased DiscoveRx KINOMEscan
T18 sequence (Q99683 whole entry): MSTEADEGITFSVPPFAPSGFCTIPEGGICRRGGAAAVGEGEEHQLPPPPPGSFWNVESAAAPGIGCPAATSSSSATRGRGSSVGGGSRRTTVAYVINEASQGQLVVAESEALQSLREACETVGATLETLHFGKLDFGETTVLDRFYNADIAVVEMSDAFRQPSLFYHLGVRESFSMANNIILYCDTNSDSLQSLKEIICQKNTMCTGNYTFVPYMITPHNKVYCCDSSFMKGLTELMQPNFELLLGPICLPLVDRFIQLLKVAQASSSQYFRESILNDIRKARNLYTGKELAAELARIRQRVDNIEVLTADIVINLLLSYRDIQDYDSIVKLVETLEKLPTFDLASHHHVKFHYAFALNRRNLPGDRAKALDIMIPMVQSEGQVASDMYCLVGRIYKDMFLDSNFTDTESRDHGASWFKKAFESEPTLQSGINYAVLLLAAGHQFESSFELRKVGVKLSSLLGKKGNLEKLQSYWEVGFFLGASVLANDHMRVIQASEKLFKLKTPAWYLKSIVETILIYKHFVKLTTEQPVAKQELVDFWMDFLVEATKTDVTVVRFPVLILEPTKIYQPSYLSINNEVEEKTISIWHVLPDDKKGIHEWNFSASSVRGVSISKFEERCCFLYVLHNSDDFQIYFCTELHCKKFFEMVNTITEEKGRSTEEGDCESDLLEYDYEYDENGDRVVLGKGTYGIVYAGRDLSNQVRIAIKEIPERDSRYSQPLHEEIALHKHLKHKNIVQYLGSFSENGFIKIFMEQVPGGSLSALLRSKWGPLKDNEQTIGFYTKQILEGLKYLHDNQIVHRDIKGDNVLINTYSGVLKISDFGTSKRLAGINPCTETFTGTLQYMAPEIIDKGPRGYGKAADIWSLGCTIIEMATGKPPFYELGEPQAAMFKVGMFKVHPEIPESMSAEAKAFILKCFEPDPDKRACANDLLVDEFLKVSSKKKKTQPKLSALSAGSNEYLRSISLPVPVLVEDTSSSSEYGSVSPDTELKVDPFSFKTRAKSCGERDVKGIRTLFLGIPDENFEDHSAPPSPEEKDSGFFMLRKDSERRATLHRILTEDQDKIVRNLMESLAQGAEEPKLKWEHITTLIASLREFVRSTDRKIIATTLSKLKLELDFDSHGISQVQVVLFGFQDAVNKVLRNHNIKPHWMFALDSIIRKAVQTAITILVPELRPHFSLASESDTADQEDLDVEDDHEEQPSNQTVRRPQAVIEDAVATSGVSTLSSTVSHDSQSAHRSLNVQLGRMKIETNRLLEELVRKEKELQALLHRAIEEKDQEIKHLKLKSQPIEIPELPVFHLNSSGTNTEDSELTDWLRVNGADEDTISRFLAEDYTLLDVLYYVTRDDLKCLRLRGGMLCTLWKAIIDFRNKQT
Summary of the method: as §1

PIK3CA = biological target: T19, PIK3CA (Homo sapiens, UniProt P42336); conditions: read-out: % Retention on Solid Support
T19 construct: purchased DiscoveRx KINOMEscan
Summary of the method: as §1

[1] = biological target: T20, RSK1(Kin.Dom.1-N-terminal) (Homo sapiens, UniProt Q15418); conditions: read-out: % Retention on Solid Support
T20 construct: RSK1(Kin.Dom.1-N-terminal); purchased DiscoveRx KINOMEscan
T20 sequence (Q15418 1-391 limits assumed): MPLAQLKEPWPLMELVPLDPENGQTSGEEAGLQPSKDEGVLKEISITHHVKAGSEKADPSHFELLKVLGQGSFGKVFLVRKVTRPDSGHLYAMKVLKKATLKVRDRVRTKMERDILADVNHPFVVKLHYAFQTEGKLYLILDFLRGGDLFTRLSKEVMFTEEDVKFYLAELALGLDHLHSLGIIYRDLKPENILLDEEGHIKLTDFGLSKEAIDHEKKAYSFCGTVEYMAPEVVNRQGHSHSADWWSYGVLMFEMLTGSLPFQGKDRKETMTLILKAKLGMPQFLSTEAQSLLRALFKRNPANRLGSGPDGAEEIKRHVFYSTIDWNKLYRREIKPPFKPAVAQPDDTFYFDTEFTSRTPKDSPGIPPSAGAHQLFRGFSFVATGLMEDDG
Summary of the method: as §1

PAK6 = biological target: T21, PAK6 (Homo sapiens, UniProt Q9NQU5); conditions: read-out: % Retention on Solid Support
T21 construct: purchased DiscoveRx KINOMEscan
T21 sequence (Q9NQU5 whole entry): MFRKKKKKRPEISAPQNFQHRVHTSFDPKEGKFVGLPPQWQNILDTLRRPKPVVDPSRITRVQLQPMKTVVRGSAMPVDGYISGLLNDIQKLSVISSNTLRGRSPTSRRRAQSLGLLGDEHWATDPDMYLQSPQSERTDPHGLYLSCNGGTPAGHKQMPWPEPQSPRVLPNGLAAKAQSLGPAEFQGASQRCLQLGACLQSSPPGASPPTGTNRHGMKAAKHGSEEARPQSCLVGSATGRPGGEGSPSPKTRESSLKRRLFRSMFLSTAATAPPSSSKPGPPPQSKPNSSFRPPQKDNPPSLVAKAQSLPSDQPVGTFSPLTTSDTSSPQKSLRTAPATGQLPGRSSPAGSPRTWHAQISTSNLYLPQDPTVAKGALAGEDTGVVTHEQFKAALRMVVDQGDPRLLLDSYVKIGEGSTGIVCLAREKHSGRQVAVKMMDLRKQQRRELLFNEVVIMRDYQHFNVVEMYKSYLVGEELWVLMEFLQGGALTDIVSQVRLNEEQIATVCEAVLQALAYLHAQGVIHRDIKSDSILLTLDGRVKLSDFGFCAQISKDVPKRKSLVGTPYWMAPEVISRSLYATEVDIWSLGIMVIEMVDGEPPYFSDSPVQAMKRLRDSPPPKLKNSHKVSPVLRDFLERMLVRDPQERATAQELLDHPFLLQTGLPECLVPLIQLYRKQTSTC
Summary of the method: as §1

MEK2 = biological target: T22, MEK2 (Homo sapiens, UniProt P36507); conditions: read-out: % Retention on Solid Support
T22 construct: purchased DiscoveRx KINOMEscan
T22 sequence (P36507 whole entry): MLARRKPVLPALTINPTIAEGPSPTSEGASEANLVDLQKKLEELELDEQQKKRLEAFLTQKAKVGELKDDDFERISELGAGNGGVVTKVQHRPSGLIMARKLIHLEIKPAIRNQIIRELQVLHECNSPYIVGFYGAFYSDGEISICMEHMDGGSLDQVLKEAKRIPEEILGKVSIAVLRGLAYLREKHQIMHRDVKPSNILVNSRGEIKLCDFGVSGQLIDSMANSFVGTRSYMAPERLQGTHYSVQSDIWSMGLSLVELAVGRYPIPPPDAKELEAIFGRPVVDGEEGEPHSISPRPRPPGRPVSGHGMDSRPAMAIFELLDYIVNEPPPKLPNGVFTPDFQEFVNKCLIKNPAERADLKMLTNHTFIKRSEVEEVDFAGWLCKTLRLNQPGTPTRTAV
Summary of the method: as §1

PRKD2 = biological target: T23, PRKD2 (Homo sapiens, UniProt Q9BZL6); conditions: read-out: % Retention on Solid Support
T23 construct: purchased DiscoveRx KINOMEscan
Summary of the method: as §1

RET(V804M) = biological target: T24, RET(V804M) (Homo sapiens, UniProt P07949, V804M); conditions: read-out: % Retention on Solid Support
T24 construct: purchased DiscoveRx KINOMEscan
Summary of the method: as §1

PCTK1 = biological target: T25, PCTK1 (Homo sapiens, UniProt Q00536); conditions: read-out: % Retention on Solid Support
T25 construct: purchased DiscoveRx KINOMEscan
Summary of the method: as §1

TRKB = biological target: T26, TRKB (Homo sapiens, UniProt Q16620); conditions: read-out: % Retention on Solid Support
T26 construct: purchased DiscoveRx KINOMEscan
Summary of the method: as §1

PAK3 = biological target: T27, PAK3 (Homo sapiens, UniProt O75914); conditions: read-out: % Retention on Solid Support
T27 construct: purchased DiscoveRx KINOMEscan
Summary of the method: as §1

FLT3(R834Q) = biological target: T28, FLT3(R834Q) (Homo sapiens, UniProt P36888, R834Q); conditions: 1 µM i-CDK9; read-out: % Retention on Solid Support
T28 construct: purchased DiscoveRx KINOMEscan
Summary of the method: as §1

T1 sequence (Q96GD4 whole entry): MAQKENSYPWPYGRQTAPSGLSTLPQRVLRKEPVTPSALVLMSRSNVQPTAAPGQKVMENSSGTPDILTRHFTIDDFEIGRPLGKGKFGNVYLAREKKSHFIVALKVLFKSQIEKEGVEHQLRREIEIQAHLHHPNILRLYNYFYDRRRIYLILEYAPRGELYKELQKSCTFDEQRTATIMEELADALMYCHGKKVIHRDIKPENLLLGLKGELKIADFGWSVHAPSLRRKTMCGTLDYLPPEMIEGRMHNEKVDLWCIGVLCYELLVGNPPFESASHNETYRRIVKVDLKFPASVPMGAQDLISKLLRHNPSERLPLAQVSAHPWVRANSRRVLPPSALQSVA

In the case of N[C@H]1CC[C@H](Nc2cc(-c3cccc(NCc4cccc(F)c4)n3)c(Cl)cn2)CC1 [i-CDK9, N2′-(trans-4-aminocyclohexyl)-5′-chloro-N6-(3-fluorobenzyl)-2,4′-bipyridine-2′,6-diamine], the remaining binding at 1 µM (AURKB; 1 µM i-CDK9) is reported as 72%, the remaining binding at 10 µM (AURKB; 10 µM i-CDK9) is reported as 91% and the “% Retention on Solid Support” value (CSNK1G2; 1 µM i-CDK9) is reported as 100%. The “% Retention on Solid Support” value (CSNK1G2; 10 µM i-CDK9) was 66%, the remaining binding at 1 µM (PIK3CA(M1043I); 1 µM i-CDK9) was 100% and the remaining binding at 10 µM (PIK3CA(M1043I); 10 µM i-CDK9) was 75%. For the same compound, the remaining binding at 1 µM (TNNI3K; 1 µM i-CDK9) was 81%, the remaining binding at 10 µM (TNNI3K; 10 µM i-CDK9) was 100% and the remaining binding at 1 µM (CLK3; 1 µM i-CDK9) was 88%. For the same compound, the remaining binding at 10 µM (CLK3; 10 µM i-CDK9) was 25%, the “% Retention on Solid Support” value (SYK; 1 µM i-CDK9) was 86% and the “% Retention on Solid Support” value (SYK; 10 µM i-CDK9) was 100%. It also gave a remaining binding at 1 µM (AKT2; 1 µM i-CDK9) of 89%, a remaining binding at 10 µM (AKT2; 10 µM i-CDK9) of 77% and a remaining binding at 1 µM (EPHB1; 1 µM i-CDK9) of 100%. It also gave a remaining binding at 10 µM (EPHB1; 10 µM i-CDK9) of 100%, a remaining binding at 1 µM (MAP3K4; 1 µM i-CDK9) of 87% and a remaining binding at 10 µM (MAP3K4; 10 µM i-CDK9) of 96%. The remaining binding at 1 µM (TLK1; 1 µM i-CDK9) was 62%, the remaining binding at 10 µM (TLK1; 10 µM i-CDK9) was 95% and the “% Retention on Solid Support” value (SIK; 1 µM i-CDK9) was 100%. For the same compound, the “% Retention on Solid Support” value (SIK; 10 µM i-CDK9) was 100%, the “% Retention on Solid Support” value (MST1; 1 µM i-CDK9) was 100% and the “% Retention on Solid Support” value (MST1; 10 µM i-CDK9) was 100%. The remaining binding at 1 µM (CAMK2B; 1 µM i-CDK9) was 100%, the remaining binding at 10 µM (CAMK2B; 10 µM i-CDK9) was 81% and the remaining binding at 1 µM (STK33; 1 µM i-CDK9) was 88%. The remaining binding at 10 µM (STK33; 10 µM i-CDK9) was 100%, the remaining binding at 1 µM (IRAK1; 1 µM i-CDK9) was 100% and the remaining binding at 10 µM (IRAK1; 10 µM i-CDK9) was 73%. It also gave a remaining binding at 1 µM (p38-beta; 1 µM i-CDK9) of 66%, a remaining binding at 10 µM (p38-beta; 10 µM i-CDK9) of 100% and a remaining binding at 1 µM (GCN2(Kin.Dom.2,S808G); 1 µM i-CDK9) of 100%. For the same compound, the remaining binding at 10 µM (GCN2(Kin.Dom.2,S808G); 10 µM i-CDK9) was 100%, the remaining binding at 1 µM (ASK1; 1 µM i-CDK9) was 100% and the remaining binding at 10 µM (ASK1; 10 µM i-CDK9) was 100%. The remaining binding at 1 µM (PIK3CA; 1 µM i-CDK9) was 100%, the remaining binding at 10 µM (PIK3CA; 10 µM i-CDK9) was 100% and the remaining binding at 1 µM ([1]; 1 µM i-CDK9) was 100%. It also gave a remaining binding at 10 µM ([1]; 10 µM i-CDK9) of 82%, a remaining binding at 1 µM (PAK6; 1 µM i-CDK9) of 100% and a remaining binding at 10 µM (PAK6; 10 µM i-CDK9) of 100%. It also gave a remaining binding at 1 µM (MEK2; 1 µM i-CDK9) of 96%, a remaining binding at 10 µM (MEK2; 10 µM i-CDK9) of 100% and a remaining binding at 1 µM (PRKD2; 1 µM i-CDK9) of 88%. For the same compound, the remaining binding at 10 µM (PRKD2; 10 µM i-CDK9) was 47%, the remaining binding at 1 µM (RET(V804M); 1 µM i-CDK9) was 74% and the remaining binding at 10 µM (RET(V804M); 10 µM i-CDK9) was 74%. The remaining binding at 1 µM (PCTK1; 1 µM i-CDK9) was 19%, the remaining binding at 10 µM (PCTK1; 10 µM i-CDK9) was 0.85% and the remaining binding at 1 µM (TRKB; 1 µM i-CDK9) was 100%. It also gave a remaining binding at 10 µM (TRKB; 10 µM i-CDK9) of 100%, a remaining binding at 1 µM (PAK3; 1 µM i-CDK9) of 100% and a remaining binding at 10 µM (PAK3; 10 µM i-CDK9) of 98%. For the same compound, the remaining binding at 1 µM (FLT3(R834Q)) was 36%.
